Measured values reported in patent US20100216706A1, “Ghrelin Protects Substantia Nigra Dopamine Neurons” (priority 2007, published 2010).
No end group written: not given here. *: point of attachment. Octanoyl = CCCCCCCC(=O)*

What was measured:
striatal dopamine [1] = experiment: Striatal DA concentration after ghrelin injection (HPLC); format: in vivo, mice
Procedure: (§1) The samples were subsequently thawed in 0.4 ml of chilled 0.1 M perchloric acid and sonicated. Aliquots were taken for protein quantification using a spectrophotometric assay. Other aliquots were centrifuged, and DA levels were measured in supernatants by high pressure liquid chromatography (HPLC) with electrochemical detection. Concentrations of DA and metabolites were expressed as ng/mg protein (mean±SEM).
To further examine the effect of ghrelin on the nigrostriatal system, striatal DA concentration after ghrelin injection in wild-type mice was measured using HPLC.

[2] = system: SNpc DA neurons mitochondria; experiment: Mitochondria number in SNpc DA perikarya (electron microscopy); format: in vivo, mice
Excerpt: Mitochondria number: Animals were perfused and their brains were processed for TH immunolabeling for electron microscopic examination. Ultrathin sections were cut on a Leica ultra microtome, collected on Formvar-coated single-slot grids and analyzed with a Tecnai 12 Biotwin (FEI Company) electron microscope. Mitochondria were counted blindly from randomly selected sections, and Scion Image was used to normalize cytoplasmic area so that mitochondrial number per cell is expressed in square micrometers.
Given that ghrelin induces mitochondrial respiration as described above, an experiment was performed to test whether ghrelin could also alter mitochondrial number in the SNpc DA perikarya. […]
Therefore, an experiment was performed to test whether ghrelin increases mitochondrial number in the SNpc dopamine neurons. […] In line with this, UCP2 ko mice show reduced mitochondrial number in the SNpc dopamine neurons, which predisposes them to environmental toxins (Andrews et al., 2005, J Neurosci 25:184-191). Furthermore, mitochondrial dysfunction lies at the very heart of Parkinson's disease (Lin et al., 2006, Nature 443:787-795).

TH neurons in the SNpc = experiment: MPTP-induced TH cell loss in the SNpc (stereology, optical fractionator); format: in vivo, mice
Excerpt: (§2) Control animals were given saline. Animals were sacrificed and perfused 7 days later and processed for immunohistochemistry or HPLC for dopamine (DA) and metabolites. n=8-10 for ghrelin wt and ko mice; n=6 for GHSR wt/wt, homo/wt and homo/TG.
TH cell quantification: Free floating sections were stained with TH (1:5000, Chemicon International) and visualized with DAB using standard procedures.
Unbiased stereology methods were used to quantify TH immunoreactive cells in the SNpc. Cells were visualized by a Zeiss microscope and relayed via a MicroFibre digital camera (www(dot)optronics(dot)com) to a computer where they were counted using the optical fractionator with the sophisticated Stereolnvestigator software (MicroBrightField, Williston, Vt., USA). Every fourth section was collected through the SNpc, and TH cells were counted in grids randomly positioned by the software in the outlined counting area through all optical planes, thus creating a 3 dimensional counting area.
(§3) The observation that ghrelin promotes SNpc DA neuronal function, mitochondrial respiration and number raises the possibility that ghrelin may protect nigrostriatal dopaminergic system during increased cellular stress. […] In brief, mice were treated with daily IP injections of exogenous ghrelin (10 nmols) or saline for 14 days. Mice were injected immediately before the dark phase, and food was removed overnight since calorie intake and postprandial increases in glucose and insulin can suppress the action of ghrelin (Cummings et al., 2006, Physiol Behav 89: 71-84). Both ghrelin and saline treated mice were given 3 grams of standard chow the following morning at 9 am. […] After the subsequent 7 days of treatment (saline or ghrelin), TH immunoreactive neurons were counted blind by two independent researchers using the non-biased optical fractionator on the stereology program, Stereoinvestigator.

striatal dopamine [3] = experiment: Striatal dopamine after MPTP (HPLC); format: in vivo, mice; settings: ghrelin 14 days
Procedure: as §2, §1, §3

[4] = system: UCP2-dependent mitochondrial respiration; experiment: Uncoupled mitochondrial respiration in pooled midbrain of UCP2 wt or ko mice; format: in vivo; settings: ghrelin IP 30 nmol, 3 hours
Procedure: Rats were used as the mitochondrial yield after isolation is much higher than the yield from mice. Mitochondrial respiration was also examined in the pooled midbrain of UCP2 ko and wt mice (3 pooled brains), 3 hours after ghrelin injection (IP 30 nmol).
Mitochondria were pooled from the SN-VTA (4 animals=1, total n=4) and isolated by differential centrifugation. Because of the size of the tissue dissected, it was impossible to solely isolate only the SNc, and as such the results are reported as SN-VTA. Briefly, the SN-VTA was rapidly dissected and homogenized in isolation buffer (215 mM Mannitol, 75 mM sucrose, 0.1% fatty acid free BSA, 20 mM Hepes, 1 mM EGTA, pH adjusted to 7.2 with KOH). The homogenate was spun at 1300×g for 3 minutes. The supernatant was removed, and the pellet was resuspended with isolation buffer and spun again at 1300×g for 3 minutes. The 2 sets of supernatant from each sample were topped off with isolation buffer and spun at 13000×g for 10 minutes. The supernatant was discarded, and this step was repeated. After this second spin at 13000×g, the supernatant was discarded, and the pellets were resuspended with isolation buffer without EGTA and spun at 10000×g for 10 minutes. The final mitochondrial pellet was resuspended with 50 μl of isolation buffer without EGTA. Protein concentrations were determined with a BCA protein assay kit (Pierce, Rockford, Ill., USA).
Mitochondrial respirations were assessed using a Clark-type oxygen electrode (Hansatech Instruments, Norfolk, England) at 37° C. with pyruvate and malate (5 mM and 2.5 mM) as oxidative substrates in respiration buffer (215 mM Mannitol, 75 mM sucrose, 0.1% fatty acid free BSA, 20 mM Hepes, 2 mM MgC1, 2.5 mM KH2PO4, pH adjusted to 7.2 with KOH). Following the addition of ADP and oligomycin, UCP-mediated proton conductance was measured as increased fatty acid-induced respiration (Echtay et al., 2002), which was then compared to state 4 respiration induced by oligomycin, an inhibitor of H^+ transporting ATP synthase.
To test whether UCP2 is important in ghrelin-induced midbrain respiration, mitochondria were isolated from the midbrain of pooled UCP2 wt or ko mice treated with ghrelin or saline, and uncoupled respiration was measured.

## ghrelin (GSS(Octanoyl)FLSPEHQRVQQRKESKKPPAKLQPR; listed as Homo sapiens) [28 amino acid acyl-peptide esterified with octanoic acid on Ser3; endogenous ligand of GHSR]
Striatal dopamine [1]; ghsr−/− mice
  Effect on DA concentration in ghsr−/− mice: no effect
Striatal dopamine [1]; wild-type mice after ghrelin injection
  DA concentration in ventral striata: 126.5±7.26 ng/mg protein
Striatal dopamine [1]; wild-type mice after ghrelin injection, saline 119.4±9.6
  DA concentration in dorsal striatum: 153±4.6 ng/mg protein
[2]; mice, three hours after ghrelin injection, saline 0.46±0.03
  Mitochondrial number in DA perikarya of the SNpc: 0.62±0.03 μm^2
[2]; two hours after ghrelin injection, saline 0.45±0.03
  Mitochondrial number in SNpc dopamine neurons, UCP2 ko mice: 0.39±0.03 μm^2
[2]; two hours after ghrelin injection, saline 0.46±0.03
  Mitochondrial number in SNpc dopamine neurons, UCP2 wt mice: 0.62±0.03 μm^2
TH neurons in the SNpc; ghrelin 10 nmols IP daily 14 days, MPTP 30 mg/kg IP on day 7
  Total TH neurons in SNpc, ghr/MPTP: 7836±285
TH neurons in the SNpc; ghrelin 10 nmols IP daily 14 days, saline on day 7, sal/sal 11283±342
  Total TH neurons in SNpc, ghr/sal: 11616±318
TH neurons in the SNpc; ghrelin 14 days, MPTP on day 7
  Dopamine cell loss compared to control mice, ghrelin treatment: 33%
  SNpc volume, ghr/MPTP: not significantly different
TH neurons in the SNpc; ghrelin 14 days, saline on day 7
  SNpc volume, ghr/sal vs sal/sal: not significantly different
Striatal dopamine [3]; MPTP on day 7
  Loss of striatal dopamine vs controls, ghr/MPTP: 45%
  Striatal dopamine concentration, ghr/MPTP: 78.4±8.8 ng/mg protein
Striatal dopamine [3]; saline on day 7, sal/sal 147.4±10.2
  Striatal dopamine concentration, ghr/sal: 141.8±7.5 ng/mg protein
[4]; ko saline 34.2±2.6
  Basal uncoupled respiration after oligomycin, UCP2 ko mice: 39.2±0.4
[4]; ko saline 96.0±7.5
  Mitochondrial respiration after palmitate, UCP2 ko mice: 109.7±2.9
[4]; wt saline 32.7±1.6
  Basal uncoupled respiration after oligomycin, UCP2 wt mice: 41.5±1.9
[4]; wt saline 106.3±5.3
  Mitochondrial respiration after palmitate, UCP2 wt mice: 134.5±4.5
[4]; wt saline 352±14.1
  FCCP-driven respiration, UCP2 wt mice: 472±12.7
